Data: PMC12045974, “T cell toxicity induced by tigecycline binding to the mitochondrial ribosome” (Nature Communications, 2025)
Values joined by “and” are separate entries in the source; they are usually repeats but may differ in a detail not shown here. Equal values may be shown once.

Assays:
PBMCs = assay: Extracellular metabolic flux assay (Seahorse Mito Stress Test, OCR and ECAR); format: cell-based, human; details: for glycolysis rates: vs untreated stimulated controls; for ATP coupled OCR / Basal OCR / Maximal OCR / Spare capacity OCR: PBMC, per donor
Procedure: The Seahorse XFe96 Analyzer (Seahorse Bioscience) was used to measure oxygen consumption rate (OCR) and extracellular acidification rate (ECAR) in human PBMCs. 1.5 × 10^6 cells/well were seeded in 24-well plates and stimulated using plate-bound anti-CD3 antibody (2 μg/ml, clone OKT3, BD Biosciences), soluble anti-CD28 antibody (0.5 μg/ml, clone CD28.2, Biolegend) and IL-2 (10 ng/ml, Proteintech) in RPMI-1640 (with 10% FBS, 2.05 mM L-glutamine (Sigma), and 55 μM 2-ME (Gibco)). Cells were treated with or without 5 and 10 µM Tigecycline for 6 days with a half medium change after 3 days. After treatment, cells were washed with Seahorse XF RPMI assay medium, and then 200,000 cells per well were seeded (in triplicate) in 40 μl assay medium in XF 96-well cell culture microplate coated with poly-D-lysine (Sigma). The plate was centrifuged at 300 g for 5 s with no brake, rotated 180 °, and centrifuged again for 5 s at 300 x g. After centrifugation, 140 μl of assay medium was added per well and the plate was left to stabilize in a 37 °C, non-CO2 incubator for 40 min. During seahorse, wells were sequentially injected with compounds to achieve final concentrations of […] oligomycin (Sigma); 2 μM FCCP (Sigma); 0.5 μM rotenone (Sigma) together with 0.5 μM antimycin A (Sigma). OCR was measured for each well three times, every three min, before and after each injection. OCR was normalized to protein concentration using a BCA Protein Assay kit (ThermoFisher Scientific) conducted according to the manufacturer’s instructions.

CD4+ and CD8+ T cells = assay: Short-term activation assay, CD25 expression on stimulated T cells; format: cell-based, human; details: for mean MFI of CD25: 18 h after anti-CD3/CD28 activation + IL-2
Procedure: After thawing frozen PBMCs, cells were washed with RPMI complemented with 10% FBS, 2.05 mM L-glutamine (Sigma), and 55 μM 2-ME (Gibco) and rested at 37 °C (5% CO2) for 30 min. 250,000 cells per well were seeded in 96-well U-bottom plates with/without Human T-Activator CD3/CD28 beads (Invitrogen) at a 1:1 ratio and 10 ng/ml IL-2 (Proteintech) in RPMI-1640 medium mentioned above. At the same time, antibiotics were added. For the short-term activation assay, cells were harvested 18 h post-stimulation and stained with Aqua fixable live/dead dye (Invitrogen) and surface markers. For the proliferation assays, cells were stained with CFSE (eBioscience) or Cell Trace Violet (ThermoFisher Scientific) dyes before seeding and stimulation, according to the manufacturer’s recommendations. For TCR priming experiments, tigecycline was added at 0, 24 or 72 h post-activation. For mitochondrial mass measuring, cells were stained with Mitotracker Green Fm Dye (Thermo Fisher Scientific) after incubation with Tigecycline. After incubation for 6 days with a half medium (complete, with antibiotics and IL-2) change after 3 days, cells were harvested via centrifugation, and stained with live/dead dye and surface markers for analysis by flow cytometry. The Foxp3/Transcription Factor Staining Buffer Set (Invitrogen) was used to fix cells according to the manufacturer’s instructions. The FACS gating strategy is shown in Supplementary Fig. 2D. Flow cytometry was carried out on a BD Celesta (BD Biosciences) and analyzed in FlowJo (TreeStar) software.

CN(C)c1cc(NC(=O)CNC(C)(C)C)c(O)c2c1C[C@H]1C[C@H]3[C@H](N(C)C)C(O)=C(C(N)=O)C(=O)[C@@]3(O)C(O)=C1C2=O [Tigecycline, tigecycline]
glycolysis rates (PBMCs; 5 uM treatment): trended towards an increase
glycolysis rates (PBMCs; 10 uM treatment): trended towards being decreased
ATP coupled OCR (PBMCs; 5um): 0.02281 pmol/min/Norm. ug protein and -0.09216 pmol/min/Norm. ug protein and -0.102 pmol/min/Norm. ug protein and -0.498 pmol/min/Norm. ug protein
Basal OCR (PBMCs; 5um): -0.181 pmol/min/Norm. ug protein and -0.2066 pmol/min/Norm. ug protein and 0.2924 pmol/min/Norm. ug protein and 0.06036 pmol/min/Norm. ug protein
Maximal OCR (PBMCs; 5um): 0.6209 pmol/min/Norm. ug protein and 0.08625 pmol/min/Norm. ug protein and 0.8496 pmol/min/Norm. ug protein and -0.7482 pmol/min/Norm. ug protein
Spare capacity OCR (PBMCs; 5um): 0.2929 pmol/min/Norm. ug protein and 0.5571 pmol/min/Norm. ug protein and -0.8086 pmol/min/Norm. ug protein
ATP coupled OCR (PBMCs; 10um): -0.2018 pmol/min/Norm. ug protein and -0.1474 pmol/min/Norm. ug protein and -0.3438 pmol/min/Norm. ug protein and 0.00593 pmol/min/Norm. ug protein
Basal OCR (PBMCs; 10um): -0.1538 pmol/min/Norm. ug protein and -0.01961 pmol/min/Norm. ug protein and -0.5181 pmol/min/Norm. ug protein and 0.03583 pmol/min/Norm. ug protein
Maximal OCR (PBMCs; 10um): 0.1774 pmol/min/Norm. ug protein and 0.3784 pmol/min/Norm. ug protein and -0.2836 pmol/min/Norm. ug protein and 0.05421 pmol/min/Norm. ug protein
Spare capacity OCR (PBMCs; 10um): 0.398 pmol/min/Norm. ug protein and 0.2345 pmol/min/Norm. ug protein and 0.01838 pmol/min/Norm. ug protein
glycolysis (ECAR) (PBMCs; stimulated PBMCs, 5 and 10 μM, 6 days): did not observe a major compensatory increase in glycolysis
basal, ATP-coupled, maximal and spare oxygen consumption rates (PBMCs; stimulated PBMCs, 5 and 10 μM, 6 days after stimulation): reduced
mean MFI of CD25 (CD4+ and CD8+ T cells; CD4, 2.5 μM): 3754 and 3553 and 3674
mean MFI of CD25 (CD4+ and CD8+ T cells; CD4, 5 μM): 3471 and 3450 and 3256
mean MFI of CD25 (CD4+ and CD8+ T cells; CD4, 10 μM): 3082 and 3057 and 2814
mean MFI of CD25 (CD4+ and CD8+ T cells; CD8, 2.5 μM): 4522 and 5003 and 6223
mean MFI of CD25 (CD4+ and CD8+ T cells; CD8, 5 μM): 4093 and 4409 and 4799
mean MFI of CD25 (CD4+ and CD8+ T cells; CD8, 10 μM): 3582 and 3463 and 3588
expression of T cell activation marker CD25 (IL2RA) (CD4+ and CD8+ T cells; stimulated CD4+ and CD8+ T cells, 18 h post-priming): reduced expression
